According to ChEMBL document CHEMBL3871295, “N-Propargylpiperidines with naphthalene-2-carboxamide or naphthalene-2-sulfonamide moieties: Potential multifunctional anti-Alzheimer's agents” (Bioorg Med Chem, 2017):

Species: Homo sapiens
Assay: Selectivity ratio of IC50 for human recombinant microsomal MAO-A expressed in baculovirus-infected insect cells to IC50 for human recombinant microsomal MAO-B expressed in baculovirus-infected insect cells
Details: not given
Work on `C#CCN1CCC(CN(CCCOC)C(=O)c2ccc3ccccc3c2)CC1` yielded a Ratio IC50 of 1.
`C#CCN1CCCC(CNS(=O)(=O)c2ccc3ccccc3c2)C1` (configuration not stated) gave a Ratio IC50 of 1.
`C#CCN1CCCC(CN(CCOC)C(=O)c2ccc3ccccc3c2)C1` (configuration not stated) showed a Ratio IC50 of 1.
`C#CCN1CCC(CN(CCOC)C(=O)c2ccc3ccccc3c2)CC1` showed a Ratio IC50 of 1.
`C#CCN1CCC(CN(CCOC)S(=O)(=O)c2ccc3ccccc3c2)CC1` showed a Ratio IC50 of 1.
With `C#CCN1CCC(CNC(=O)c2ccc3ccccc3c2)CC1` the Ratio IC50 was over 1.38.

System: not given
Assay: not given
Details: PAMPA, pH 7.4
For `CC(=O)[C@H]1CC[C@H]2[C@@H]3CCC4=CC(=O)CC[C@]4(C)[C@H]3CC[C@]12C` [PROGESTERONE], the logPeff was -4.

Target: T1, Amine oxidase [flavin-containing] B (Homo sapiens, UniProt P27338)
T1 sequence (P27338 whole entry): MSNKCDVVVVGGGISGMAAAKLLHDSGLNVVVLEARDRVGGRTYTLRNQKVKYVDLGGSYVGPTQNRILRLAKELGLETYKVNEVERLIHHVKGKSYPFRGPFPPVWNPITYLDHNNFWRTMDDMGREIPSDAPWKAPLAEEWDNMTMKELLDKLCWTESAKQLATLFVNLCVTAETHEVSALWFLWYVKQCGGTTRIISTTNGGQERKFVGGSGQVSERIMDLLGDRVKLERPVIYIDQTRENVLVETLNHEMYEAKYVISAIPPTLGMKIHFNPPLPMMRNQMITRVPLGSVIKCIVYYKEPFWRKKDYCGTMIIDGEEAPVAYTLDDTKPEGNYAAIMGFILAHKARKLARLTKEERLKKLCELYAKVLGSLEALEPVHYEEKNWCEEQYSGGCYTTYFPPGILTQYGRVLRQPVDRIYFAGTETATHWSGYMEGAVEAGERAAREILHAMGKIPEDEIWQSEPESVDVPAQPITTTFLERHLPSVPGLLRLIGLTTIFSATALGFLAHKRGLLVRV
Assay: biochemical
Format: cell-based
Details: not given
Compound `C#CCN1CCC(CN(CCCOC)C(=O)c2ccc3ccccc3c2)CC1` has an IC50 of over 100 µM.
With `C#CCN1CCCC(CNS(=O)(=O)c2ccc3ccccc3c2)C1` (configuration not stated) the IC50 was over 100 µM.
`C#CCN1CCCC(CN(CCOC)C(=O)c2ccc3ccccc3c2)C1` (configuration not stated) gave an IC50 of over 100 µM.
`C#CCN1CCC(CN(CCOC)C(=O)c2ccc3ccccc3c2)CC1` showed an IC50 of over 100 µM.
`C#CCN1CCC(CN(CCOC)S(=O)(=O)c2ccc3ccccc3c2)CC1` showed an IC50 of over 100 µM.
Compound `C#CCN1CCC(CNC(=O)c2ccc3ccccc3c2)CC1` has an IC50 of 72.6 µM.

Target: Amyloid-beta precursor protein (Homo sapiens) (UniProt P05067)
Sequence (P05067 whole entry): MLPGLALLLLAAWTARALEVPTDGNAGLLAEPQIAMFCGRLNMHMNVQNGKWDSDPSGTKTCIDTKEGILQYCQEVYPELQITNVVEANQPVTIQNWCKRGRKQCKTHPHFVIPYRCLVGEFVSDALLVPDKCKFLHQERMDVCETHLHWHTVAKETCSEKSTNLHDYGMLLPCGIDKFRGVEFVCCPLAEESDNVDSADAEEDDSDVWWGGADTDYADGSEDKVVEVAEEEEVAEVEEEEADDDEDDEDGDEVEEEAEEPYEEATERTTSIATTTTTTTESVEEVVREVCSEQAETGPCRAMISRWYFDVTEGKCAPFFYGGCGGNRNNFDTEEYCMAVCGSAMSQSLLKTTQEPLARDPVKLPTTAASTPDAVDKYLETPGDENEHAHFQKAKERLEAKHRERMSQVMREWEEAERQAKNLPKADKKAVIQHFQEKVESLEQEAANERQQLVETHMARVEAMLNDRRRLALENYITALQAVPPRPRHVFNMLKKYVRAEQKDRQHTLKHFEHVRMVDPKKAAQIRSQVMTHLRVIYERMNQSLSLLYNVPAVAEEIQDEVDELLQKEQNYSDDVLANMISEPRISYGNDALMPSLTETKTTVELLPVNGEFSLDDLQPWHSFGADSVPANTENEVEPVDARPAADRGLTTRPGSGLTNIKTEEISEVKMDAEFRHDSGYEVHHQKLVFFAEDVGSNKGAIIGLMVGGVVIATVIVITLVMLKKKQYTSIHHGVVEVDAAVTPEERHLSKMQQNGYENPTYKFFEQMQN
Assay: Inhibition of HFIP-pretreated recombinant human amyloid beta (1 to 42) self-induced aggregation at 10 uM measured after 20 hrs for every 300 secs by thioflavin-T based fluorometric assay relative to control
Details: not given
`C#CCN1CCC(CN(CCCOC)C(=O)c2ccc3ccccc3c2)CC1` gave an inhibition of under 10%.
For `C#CCN1CCCC(CNS(=O)(=O)c2ccc3ccccc3c2)C1` (configuration not stated), the inhibition was under 10%.
`C#CCN1CCCC(CN(CCOC)C(=O)c2ccc3ccccc3c2)C1` (configuration not stated) gave an inhibition of under 10%.
With `C#CCN1CCC(CN(CCOC)C(=O)c2ccc3ccccc3c2)CC1` the inhibition was 23.4%.
Work on `C#CCN1CCC(CN(CCOC)S(=O)(=O)c2ccc3ccccc3c2)CC1` yielded an inhibition of under 10%.
For `C#CCN1CCC(CNC(=O)c2ccc3ccccc3c2)CC1`, the inhibition was under 10%.

Target: T2, Acetylcholinesterase (Mus musculus, UniProt P21836)
T2 sequence (P21836 whole entry): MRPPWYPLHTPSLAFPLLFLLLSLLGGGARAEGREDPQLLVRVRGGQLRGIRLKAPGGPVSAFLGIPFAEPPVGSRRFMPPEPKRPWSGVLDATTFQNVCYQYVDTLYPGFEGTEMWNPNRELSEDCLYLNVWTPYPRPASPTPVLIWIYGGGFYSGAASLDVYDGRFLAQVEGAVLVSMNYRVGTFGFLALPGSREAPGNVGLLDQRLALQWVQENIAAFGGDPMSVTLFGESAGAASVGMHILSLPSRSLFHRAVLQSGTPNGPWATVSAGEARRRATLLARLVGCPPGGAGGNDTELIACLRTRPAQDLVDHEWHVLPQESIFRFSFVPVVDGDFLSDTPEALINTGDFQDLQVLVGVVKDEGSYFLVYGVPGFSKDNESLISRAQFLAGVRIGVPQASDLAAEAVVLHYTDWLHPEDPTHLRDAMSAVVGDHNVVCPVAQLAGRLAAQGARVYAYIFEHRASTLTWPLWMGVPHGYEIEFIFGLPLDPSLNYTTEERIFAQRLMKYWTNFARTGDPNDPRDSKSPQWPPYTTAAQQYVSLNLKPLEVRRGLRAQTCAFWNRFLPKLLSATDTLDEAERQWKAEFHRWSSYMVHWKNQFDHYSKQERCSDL
Assay: not given
Details: not given
Compound `C#CCN1CCC(CN(CCCOC)C(=O)c2ccc3ccccc3c2)CC1` has an IC50 of over 100 µM.
Work on `C#CCN1CCCC(CNS(=O)(=O)c2ccc3ccccc3c2)C1` (configuration not stated) yielded an IC50 of over 100 µM.
Compound `C#CCN1CCCC(CN(CCOC)C(=O)c2ccc3ccccc3c2)C1` (configuration not stated) has an IC50 of over 100 µM.
Work on `C#CCN1CCC(CN(CCOC)C(=O)c2ccc3ccccc3c2)CC1` yielded an IC50 of over 100 µM.
`C#CCN1CCC(CN(CCOC)S(=O)(=O)c2ccc3ccccc3c2)CC1` showed an IC50 of over 100 µM.
Work on `C#CCN1CCC(CNC(=O)c2ccc3ccccc3c2)CC1` yielded an IC50 of over 100 µM.

Target: Cholinesterase (Homo sapiens, UniProt P06276)
Sequence (P06276 whole entry): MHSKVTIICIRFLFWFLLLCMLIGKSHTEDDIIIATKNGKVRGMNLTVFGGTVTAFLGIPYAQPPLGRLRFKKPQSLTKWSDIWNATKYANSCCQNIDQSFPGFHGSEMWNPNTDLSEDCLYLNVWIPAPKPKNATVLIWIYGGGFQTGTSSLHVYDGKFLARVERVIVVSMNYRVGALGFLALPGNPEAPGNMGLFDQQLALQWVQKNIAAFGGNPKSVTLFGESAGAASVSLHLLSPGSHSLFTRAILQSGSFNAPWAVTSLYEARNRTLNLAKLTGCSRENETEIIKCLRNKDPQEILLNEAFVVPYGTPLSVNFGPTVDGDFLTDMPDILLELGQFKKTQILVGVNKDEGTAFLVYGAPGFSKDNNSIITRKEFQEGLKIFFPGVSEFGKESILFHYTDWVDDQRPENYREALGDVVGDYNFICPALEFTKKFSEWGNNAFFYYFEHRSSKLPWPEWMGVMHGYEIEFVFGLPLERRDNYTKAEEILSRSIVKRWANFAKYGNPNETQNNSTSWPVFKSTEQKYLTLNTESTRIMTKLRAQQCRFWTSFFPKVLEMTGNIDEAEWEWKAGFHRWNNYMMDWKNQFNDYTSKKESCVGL
Assay: not given
Details: not given
For `C#CCN1CCC(CN(CCCOC)C(=O)c2ccc3ccccc3c2)CC1`, the IC50 was 4.59 µM.
For `C#CCN1CCCC(CNS(=O)(=O)c2ccc3ccccc3c2)C1` (configuration not stated), the IC50 was 1.22 µM.
`C#CCN1CCCC(CN(CCOC)C(=O)c2ccc3ccccc3c2)C1` (configuration not stated) gave an IC50 of 3.31 µM.
`C#CCN1CCC(CN(CCOC)C(=O)c2ccc3ccccc3c2)CC1` gave an IC50 of 4.04 µM.
Work on `C#CCN1CCC(CN(CCOC)S(=O)(=O)c2ccc3ccccc3c2)CC1` yielded an IC50 of 0.384 µM.
In the case of `C#CCN1CCC(CNC(=O)c2ccc3ccccc3c2)CC1`, the IC50 is reported as 54.4 µM.

Target: T3, Amine oxidase [flavin-containing] A (Homo sapiens, UniProt P21397)
T3 sequence (P21397 whole entry): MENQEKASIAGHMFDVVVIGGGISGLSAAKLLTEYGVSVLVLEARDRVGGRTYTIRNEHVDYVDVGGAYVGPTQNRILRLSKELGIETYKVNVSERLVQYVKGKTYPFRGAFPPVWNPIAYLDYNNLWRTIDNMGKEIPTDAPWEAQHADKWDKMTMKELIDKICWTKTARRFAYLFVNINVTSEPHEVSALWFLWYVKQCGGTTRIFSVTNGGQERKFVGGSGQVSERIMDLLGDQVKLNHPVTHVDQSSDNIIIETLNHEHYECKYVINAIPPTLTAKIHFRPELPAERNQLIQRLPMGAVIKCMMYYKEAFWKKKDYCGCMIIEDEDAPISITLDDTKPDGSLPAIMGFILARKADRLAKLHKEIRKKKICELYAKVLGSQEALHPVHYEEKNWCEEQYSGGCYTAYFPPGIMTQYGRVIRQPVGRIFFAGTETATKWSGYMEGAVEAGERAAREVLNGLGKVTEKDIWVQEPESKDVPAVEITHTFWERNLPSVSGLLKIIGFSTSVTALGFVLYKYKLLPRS
Assay: biochemical
Details: not given
Compound `C#CCN1CCC(CN(CCCOC)C(=O)c2ccc3ccccc3c2)CC1` has an IC50 of over 100 µM.
With `C#CCN1CCCC(CNS(=O)(=O)c2ccc3ccccc3c2)C1` (configuration not stated) the IC50 was over 100 µM.
Work on `C#CCN1CCCC(CN(CCOC)C(=O)c2ccc3ccccc3c2)C1` (configuration not stated) yielded an IC50 of over 100 µM.
`C#CCN1CCC(CN(CCOC)C(=O)c2ccc3ccccc3c2)CC1` gave an IC50 of over 100 µM.
For `C#CCN1CCC(CN(CCOC)S(=O)(=O)c2ccc3ccccc3c2)CC1`, the IC50 was over 100 µM.
`C#CCN1CCC(CNC(=O)c2ccc3ccccc3c2)CC1` gave an IC50 of over 100 µM.
